Reference: patent publication US20170190705A1, “Compositions and Methods for Inhibiting BMP” (THE BRIGHAM AND WOMAN'S HOSPITAL, INC., priority 2014, published 2017)
Like-named read-outs stand apart in the source and are kept apart here.

Legend:
[1] = tested on: TGFβ1; experiment: Ligand induced transcriptional activity assay TGFβ1 (CAGA-Luc); conditions: Homo sapiens; cell-based signaling inhibition
[2] = tested on: BMP6; experiment: Ligand induced transcriptional activity assay BMP6 (BRE-Luc); format: cell-based; conditions: for Fold Select.: TGFβ1 vs BMP6; for IC50: cell-based signaling inhibition, read-out: BMP6 IC50
[3] = tested on: HePG2 hepatocarcinoma cells; format: cell-based; conditions: human
Method: The cells were incubated for 2 h (37° C. and 5% CO2) and allowed to settle and attach. Compounds of interest or DMSO were diluted in DMEM and added at final compound concentrations of 1 μM, 10 μM, and 100 μM. Cells were incubated for 4 hours and 24 hours after which the media was discarded. Cells were lysed by adding 30 μL of passive lysis buffer (Promega) and shaken at RT for 15 min. Cell viability was determined by quantifying the ATP present in each well by adding 10 μL of CellTiter-Glo (Promega) per well and measuring the light output Spectramax L luminometer (Molecular Devices) with an integration time of one second per well. Data was normalized to 100% viability for cells receiving only DMSO without any concurrent compound.

[4] = biological target: T1, ALK2 (Homo sapiens, UniProt Q04771, Q207D); experiment: Thermal shift kinase assay ALK2; format: binding; conditions: for ΔTmDiff.: ALK2 minus ALK5; for ΔTm at 10 µM: 10 μM inhibitor
T1 construct: His tag (TEV-cleavable) (N, cleaved yes); made in house; host or cells: Sf9 insect cells (baculovirus)
T1 sequence (Q04771 201-499 Q207D): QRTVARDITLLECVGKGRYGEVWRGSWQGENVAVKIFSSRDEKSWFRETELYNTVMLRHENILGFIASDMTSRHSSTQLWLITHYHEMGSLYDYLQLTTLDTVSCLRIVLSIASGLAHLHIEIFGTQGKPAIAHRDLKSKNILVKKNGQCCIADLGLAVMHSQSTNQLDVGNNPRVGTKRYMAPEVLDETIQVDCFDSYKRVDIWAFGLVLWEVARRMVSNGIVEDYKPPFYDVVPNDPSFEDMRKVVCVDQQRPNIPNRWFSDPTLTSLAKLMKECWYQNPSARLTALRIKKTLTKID
Method: (§1) Thermal melting experiments were performed using a Real Time PCR machine Mx3005p (Stratagene) with a protein concentration of 1-2 μM and 10 μM inhibitor as described by Niesen et al., Nat Protoc 2007, 2, 2212-21. Recombinant human kinases for DSF screening were prepared by SGC using the published methods of Sanvitale et al., PLoS One 2013, 8, e62721. The potency and selectivity of certain compounds of the invention based on thermal shift kinase and ligand induced transcriptional activity assays are shown in Table 2.

[5] = biological target: T2, ALK5 (Homo sapiens, UniProt P36897); experiment: Thermal shift kinase assay ALK5; format: binding
T2 construct: made in house
T2 sequence (P36897 34-503): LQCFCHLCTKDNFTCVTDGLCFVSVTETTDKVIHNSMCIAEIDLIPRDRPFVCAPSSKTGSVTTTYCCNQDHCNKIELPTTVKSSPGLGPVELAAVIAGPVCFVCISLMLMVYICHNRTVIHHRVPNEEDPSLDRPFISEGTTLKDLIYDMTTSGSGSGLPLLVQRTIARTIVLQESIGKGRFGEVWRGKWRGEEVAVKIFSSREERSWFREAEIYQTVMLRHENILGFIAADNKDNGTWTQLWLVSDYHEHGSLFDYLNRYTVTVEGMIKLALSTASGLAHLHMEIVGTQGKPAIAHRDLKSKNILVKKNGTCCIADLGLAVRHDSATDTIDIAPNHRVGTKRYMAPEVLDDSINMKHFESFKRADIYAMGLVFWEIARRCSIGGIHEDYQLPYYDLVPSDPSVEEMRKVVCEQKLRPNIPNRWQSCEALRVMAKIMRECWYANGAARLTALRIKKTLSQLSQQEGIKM
Method: as §1

[6] = biological target: T3, caALK1 (Homo sapiens, UniProt P37023, Q201D); experiment: Luciferase reporter assay constitutively active ALK1; conditions: read-out: Cell Based Assay caALK1 IC50
T3 construct: expressed in transfected cells; host or cells: C2C12 BRE-Luc cells infected with adenovirus (MOI 100)
Method: (§2) The cells were incubated for 1 h (37° C. and 10% CO2) and allowed to settle and attach. Compounds of interest or DMSO were diluted in DMEM and added at final compound concentrations of 1 nM to 10 μM. Cells were then incubated for 30 min. Adenovirus expressing constitutively active BMP and TGF-β type I receptors (Ad.caALK1-5), generously provided by Dr. Akiko Hata (University of to California at San Francisco), were added to achieve a multiplicity of infection (MOI) of 100. Plates were incubated overnight at 37° C. Cell viability was assayed with an MIT (3-(4,5-dimethylthiazol-2-yl)-2,5-diphenyl tetrazolium bromide) colorimetric assay (Promega) per the manufacturer's instructions. Media was discarded, and firefly luciferase activity was measured (Promega) according to manufacturer's protocol. Light output was measured using a Spectramax L luminometer (Molecular Devices) with an integration time of one second per well. Data was normalized to 100% of incremental BRE-Luc activity due to adenoviruses specifying caALK1, 2, or 3, or the incremental CAGA-Luc activity due to adenoviruses specifying caALK4 or 5.

[7] = biological target: T4, caALK3 (Homo sapiens, UniProt P36894, Q233D); experiment: Luciferase reporter assay constitutively active ALK3; conditions: read-out: Cell Based Assay caALK3 IC50
T4 construct: expressed in transfected cells; host or cells: C2C12 BRE-Luc cells infected with adenovirus (MOI 100)
From the text: as §2, with “C2Cl2 […] cells stably transfected with BMP responsive element from the Id promoter fused to luciferase reporter gene (BRE-Luc) were generously provided by Dr. Peter ten Dijke (Leiden University Medical Center, NL) following the methods described by Zilberberg et al., BMC cell biology 2007, 8, 41-50. Human embryonic kidney 293T cells stably transfected with the TGF-β responsive element from the PAI-1 promoter fused to luciferase reporter gene (CAGA-Luc) were generously provided by Dr. Howard Weiner (Brigham and Women's Hospital, Boston, Mass.) following the methods described by Oida et al., PloS one 2011, 6, e18365. C2Cl2 Bre-Luc and 293T CAGA-Luc cells were seeded in DMEM supplemented with 2% FBS at 20,000 cells per well in tissue culture treated 96-well plates (Costar® 3610; Corning). The” for “The”

[8] = biological target: T5, caALK4 (Homo sapiens, UniProt P36896); experiment: Luciferase reporter assay constitutively active ALK4; conditions: read-out: Cell Based Assay caALK4 IC50
T5 sequence (P36896 1-505 T206D): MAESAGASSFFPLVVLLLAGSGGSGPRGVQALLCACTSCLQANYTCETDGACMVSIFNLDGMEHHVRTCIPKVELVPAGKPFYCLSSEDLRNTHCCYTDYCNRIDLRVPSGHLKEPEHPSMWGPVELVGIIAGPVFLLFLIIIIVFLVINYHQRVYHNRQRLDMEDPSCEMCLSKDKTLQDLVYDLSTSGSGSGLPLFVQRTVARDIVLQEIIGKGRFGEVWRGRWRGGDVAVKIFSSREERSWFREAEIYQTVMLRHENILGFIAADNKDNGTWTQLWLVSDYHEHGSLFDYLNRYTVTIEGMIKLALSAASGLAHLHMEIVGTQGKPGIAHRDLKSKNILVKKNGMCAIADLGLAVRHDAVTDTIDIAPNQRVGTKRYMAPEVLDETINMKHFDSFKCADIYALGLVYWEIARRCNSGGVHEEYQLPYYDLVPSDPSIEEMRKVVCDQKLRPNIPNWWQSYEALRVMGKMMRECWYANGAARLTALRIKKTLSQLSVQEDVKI
From the text: as §2, with “C2Cl2 […] cells stably transfected with BMP responsive element from the Id promoter fused to luciferase reporter gene (BRE-Luc) were generously provided by Dr. Peter ten Dijke (Leiden University Medical Center, NL) following the methods described by Zilberberg et al., BMC cell biology 2007, 8, 41-50. Human embryonic kidney 293T cells stably transfected with the TGF-β responsive element from the PAI-1 promoter fused to luciferase reporter gene (CAGA-Luc) were generously provided by Dr. Howard Weiner (Brigham and Women's Hospital, Boston, Mass.) following the methods described by Oida et al., PloS one 2011, 6, e18365. C2Cl2 Bre-Luc and 293T CAGA-Luc cells were seeded in DMEM supplemented with 2% FBS at 20,000 cells per well in tissue culture treated 96-well plates (Costar® 3610; Corning). The” for “The”

T3 sequence (P37023 22-503 Q201D): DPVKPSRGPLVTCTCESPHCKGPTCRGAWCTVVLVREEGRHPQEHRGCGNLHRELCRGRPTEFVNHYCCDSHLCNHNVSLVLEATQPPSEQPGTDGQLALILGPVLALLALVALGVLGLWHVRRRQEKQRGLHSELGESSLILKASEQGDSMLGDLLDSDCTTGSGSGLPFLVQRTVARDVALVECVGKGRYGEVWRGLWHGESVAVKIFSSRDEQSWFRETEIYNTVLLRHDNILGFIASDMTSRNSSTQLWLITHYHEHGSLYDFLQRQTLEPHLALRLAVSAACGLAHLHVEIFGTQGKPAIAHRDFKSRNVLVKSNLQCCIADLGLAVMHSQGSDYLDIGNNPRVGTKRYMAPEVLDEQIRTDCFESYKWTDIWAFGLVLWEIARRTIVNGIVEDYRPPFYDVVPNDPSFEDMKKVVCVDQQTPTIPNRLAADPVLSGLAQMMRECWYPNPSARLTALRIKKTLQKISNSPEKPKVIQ
T4 sequence (P36894 24-532 Q233D): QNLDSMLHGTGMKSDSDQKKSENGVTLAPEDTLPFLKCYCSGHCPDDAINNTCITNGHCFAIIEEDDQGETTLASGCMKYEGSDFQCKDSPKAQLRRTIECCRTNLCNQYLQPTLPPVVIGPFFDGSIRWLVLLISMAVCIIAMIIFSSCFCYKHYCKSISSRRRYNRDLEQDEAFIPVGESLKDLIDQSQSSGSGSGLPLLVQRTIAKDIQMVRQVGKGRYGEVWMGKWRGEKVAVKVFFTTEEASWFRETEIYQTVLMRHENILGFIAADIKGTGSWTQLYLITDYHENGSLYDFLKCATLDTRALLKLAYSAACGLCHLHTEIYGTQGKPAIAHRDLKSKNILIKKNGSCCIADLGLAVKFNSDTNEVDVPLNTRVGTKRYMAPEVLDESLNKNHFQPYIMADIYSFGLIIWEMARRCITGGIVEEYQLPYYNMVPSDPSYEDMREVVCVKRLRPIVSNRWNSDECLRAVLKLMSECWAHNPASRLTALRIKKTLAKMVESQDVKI

| Structure (SMILES) | IC50 [1] [µM] | Fold Select. [2] | IC50 [2] [nM] | Cell viability ([3]; 4 h, 1 μM) [%] | Cell viability ([3]; 4 h, 10 μM) [%] | Cell viability ([3]; 4 h, 100 μM) [%] | Cell viability ([3]; 24 h, 1 μM) [%] | Cell viability ([3]; 24 h, 10 μM) [%] | Cell viability ([3]; 24 h, 100 μM) [%] | ΔTmDiff. [4] | ΔTm at 10 µM ([5]; 10 μM inhibitor) [°C] | ΔT ALK5 ([5]; Table 6) [°C] | ΔTm at 10 µM [4] [°C] | ΔT ALK2 ([4]; Table 6) [°C] | ΔT Diff. ([4]; Table 6, ALK2 minus ALK5) [°C] | IC50 [6] [nM] | IC50 [7] [nM] | IC50 [8] [nM] |
| --- | --- | --- | --- | --- | --- | --- | --- | --- | --- | --- | --- | --- | --- | --- | --- | --- | --- | --- |
| COc1cc(-c2cc(-c3ccc(O)cc3)cnc2N)cc(OC)c1OC [Compound 11, 4-(6-Amino-5-(3,4,5-trimethoxyphenyl)pyridin-3-yl)phenol] | 0.58 ± 0.05 | 28 | 20 ± 1 | 95 | 98 | 91 | 99 | 89 | 82 | 1.5 |  |  |  |  |  |  |  |  |
| COc1cc(-c2cnc(N)c(-c3cc(OC)c(OC)c(OC)c3)c2)ccc1O [Compound 12, 4-(6-amino-5-(3,4,5-trimethoxyphenyl)pyridin-3-yl)-2-methoxyphenol] | 2.3 |  | 90 ± 30 | 96 | 103 | 93 | 97 | 88 | 89 | 1.7 |  |  |  |  |  |  |  |  |
| COc1cc(-c2cc(-c3ccc(N4CCNCC4)cc3)cnc2N(C)C)cc(OC)c1OC [Compound 25, N,N-dimethyl-5-(4-(piperazin-1-yl)phenyl)-3-(3,4,5-trimethoxyphenyl)pyridin-2-amine] | 15 |  | 1700 | 92 | 103 | 95 | 101 | 91 |  | 0.1 |  |  |  |  |  |  |  |  |
| COc1cc(-c2cncc(-c3ccc(N4CCNCC4)cc3)c2)cc(OC)c1OC [Compound 26, 1-(4-(5-(3,4,5-trimethoxyphenyl)pyridin-3-yl)phenyl)piperazine] |  |  |  | 96 | 103 |  | 103 | 80 |  | 3.7 | 10.4 | 10.4 | 14 | 14.1 | 3.7 | 202 | 105 | 427 |
| COc1cc(-c2cc(-c3ccc(N4CCNCC4)cc3)cnc2Cl)cc(OC)c1OC [Compound 27, 1-(4-(6-chloro-5-(3,4,5-trimethoxyphenyl)pyridin-3-yl)phenyl)piperazine] | 90 | 244 | 170 ± 60 | 95 | 103 | 97 | 101 | 98 |  | 3.8 |  |  |  |  |  |  |  |  |
| COc1cc(-c2cc(-c3ccc(N4CCNCC4)cc3)cnc2OC)cc(OC)c1OC [Compound 28, 1-(4-(6-methoxy-5-(3,4,5-trimethoxyphenyl)pyridin-3-yl)phenyl)piperazine] | 82 |  | 1700 | 92 | 102 |  | 99 | 98 |  | 0.1 |  |  |  |  |  |  |  |  |
| COc1cc(-c2cc(-c3cccc(O)c3)cnc2N)cc(OC)c1OC [Compound K02288, 3-(6-Amino-5-(3,4,5-trimethoxyphenyl)pyridin-3-yl)phenol, reference compound] |  |  | 420 ± 170 | 103 | 107 | 115 | 106 | 110 |  | 2.0 |  |  | 13.2 |  |  |  |  |  |
